In US9867794B2, “Regulation of osteopontin” (Pathologica LLC, priority 2007, dated 2018):

Legend:
[1] = test system: OPN RNA; experiment: OPN production inhibition assay in un-stimulated PBMC cultures, OPN RNA; format: cell-based; details: 10 μM, harvested 1, 3 and 6 days
Experimental: (§1) 10 μM of each drug was added to un-stimulated PBMC cultures at time=0 and cells were harvested 1,3, and 6 days later for quantitative OPN RNA and protein production analysis.

[2] = test system: OPN protein; experiment: OPN production inhibition assay in un-stimulated PBMC cultures, OPN protein; format: cell-based; details: 10 μM
Experimental: as §1

[3] = test system: CD14+/CD16+ cells; experiment: Exogenous rOPN on macrophage yield, flow cytometry of PBMC cultures; format: cell-based, human; details: 10 μg/ml rOPN
Experimental: To determine the role of exogenous recombinant human OPN (rOPN) in macrophage activation, 10 μg/ml rOPN(R&D Systems, Inc., Minneapolis, Minn.) was added to non-adherent PBMC cultures grown in complete or in serum free medium for 24 and 72 hours, and analyzed via flow cytometry. […] Shown in the upper right quadrant in FIG. 8 is the percentage of cells that are double positive for CD14 and CD16 surface markers.

[4] = test system: CD14+/CD16+ cells; experiment: Macrophage activation via flow cytometry, mononuclear cells cultured for 3 days; format: cell-based
Experimental: (§2) We investigated macrophage activation via flow cytometry and levels of pro- and anti-inflammatory cytokines in cell culture supernatants of mononuclear cells. 10 μg/ml recombinant human OPN (rOPN) was added to mononuclear cells cultured for 3 days, with and without fetal bovine serum (FBS) in cell culture medium, and analyzed via flow cytometry. […] An increase in CD14+/CD16+ cells was also observed with cells cultured in serum free medium and rOPN in comparison to control. To observe the effects of OPN neutralizing antibody on macrophage activation, 10 μg of antibody was added to cultures for 3 days. […] We also investigated the levels of pro- and anti-inflammatory cytokines in all cell culture supernatants of each time point. On average, IL-6, IL-1β, TNF-α, IL-10, and IL-12p40 were at least 50-fold higher with rOPN at 24 and 72 hours in all culture conditions in comparison to control.

[5] = test system: pro- and anti-inflammatory cytokines; experiment: Cytokine levels in cell culture supernatants of mononuclear cells; format: cell-based; details: rOPN
Experimental: as §2

[6] = 24 and 72 hours, all culture conditions, on average
[7] = any time point and culture condition

Molecule: CCNCCCNC/C=C\CNCCCNCC.Cl.Cl.Cl.Cl [SL47, N,N′-bis(3-ethylaminopropyl)-cis-but-2-ene-1,4-diamine tetrahydrochloride]
- OPN RNA expression [1]: inhibited in a time dependant manner
- OPN protein production [2]: Complete inhibition

Molecule: CCNCCCCNC[C@@H]1C[C@H]1CNCCCCNCC [SL93, N,N′-(cyclopropane-1,2-diylbis(methylene))bis(N4-ethylbutane-1,4-diamine)]
- OPN RNA expression [1]: inhibited in a time dependant manner
- OPN protein production [2]: Complete inhibition

Molecule: rOPN: exogenous recombinant human OPN (R&D Systems, Inc.)
- accumulation of CD14+/CD16+ cells vs control ([3]; complete medium, 24 hours): no significant accumulation
- increase in CD14+/CD16+ cells vs control ([3]; complete medium, 72 hours): 11 fold
- increase in CD14+/CD16+ cells vs serum free control ([3]; serum free, 72 hours): 2.97 fold
- accumulation of CD14+/CD16+ cells vs FBS-only control ([4]; 10 μg/ml rOPN and FBS, 24 hours): no significant accumulation
- increase in CD14+/CD16+ cells vs control ([4]; 10 μg/ml rOPN, 72 hours): 12 fold
- CD14+/CD16+ cells vs control ([4]; 10 μg/ml rOPN, serum free medium): increase
- IL-1β level vs control [5, 6]: at least 50 fold
- IL-6 level vs control [5, 6]: at least 50 fold
- IL-10 level vs control [5, 6]: at least 50 fold
- IL-12p40 level vs control [5, 6]: at least 50 fold
- TNF-α level vs control [5, 6]: at least 50 fold
- IL-4 level vs control [5, 7]: no significant difference
- IL-12p70 level vs control [5, 7]: no significant difference

B1: MCSF: growth factor MCSF (protein, UniProt P09603 33-554, looked up)
Macrophage colony-stimulating …: EEVSEYCSHMIGSGHLQSLQRLIDSQMETSCQITFEFVDQEQLKDPVCYLKKAFLLVQDIMEDTMRFRDNTPNAIAIVQLQELSLRLKSCFTKDYEEHDKACVRTFYETPLQLLEKVKNVFNETKNLLDKDWNIFSKNCNNSFAECSSQDVVTKPDCNCLYPKAIPSSDPASVSPHQPLAPSMAPVAGLTWEDSEGTEGSSLLPGEQPLHTVDPGSAKQRPPRSTCQSFEPPETPVVKDSTIGGSPQPRPSVGAFNPGMEDILDSAMGTNWVPEEASGEASEIPVPQGTELSPSRPGGGSMQTEPARPSNFLSASSPLPASAKGQQPADVTGTALPRVGPVRPTGQDWNHTPQKTDHPSALLRDPPEPGSPRISSLRPQGLSNPSTLSAQPQLSRSHSSGSVLPLGELEGRRSTRDRRSPAEPEGGPASEGAARPLPRFNSVPLTDTGHERQSEGSFSPQLQESVFHLLVPSVILVLLAVGGLLFYRWRRRSHQEPQRADSPLEQPEGSPLTQDDRQVELPV
- OPN RNA expression [1]: no effect
